Earlier results as cited in patent publication US4743707A, “Process for purifying allyl alcohol” (priority 1986, dated 1988).

Conditions: 20° C.; Ullmanns Encyklopadie

In the case of `O=P([O-])([O-])OP(=O)([O-])OP(=O)([O-])[O-].[K+].[K+].[K+].[K+].[K+]` [Potassium tripolyphosphate, potassium tripolyphosphate], the water solubility is listed as “about 67%”.
